Results published in US9315492B2, “Heterocyclic group contained amino-methanol derivative, and salt, synthetic method and use thereof” (BEIJING FORELAND BIOPHARMA CO., LTD., priority 2012, dated 2016).
pEC50, pIC50: −log10 of the molar value.

Legend:
S1P1 [1] = target: T1, S1P1 (Homo sapiens (Human), UniProt P21453); assay: S1P1 GTPγS binding assay; format: biochemical; conditions: [35S]-GTPγS, membranes with high-expressed S1P1 (CHO-S1P1)
Method: 1. S1P1GTPγS Binding Assay
2) T-75 cell culture plate; 150 mm cell culture dish
3) DMEM cell culture fluid; 10% (v/v) fetal bovine serum; 100 U/ml penicillin-100 μg/ml streptomycin; 2 mM […], 1 mg/ml G-418
4) Cell Lysis Buffer: HEPES 20 mM (pH 7.4), EDTA 10 mM
5) Stock solution: HEPES 20 mM, EDTA 0.1 mM
6) Binding Buffer; HEPES 20 mM (pH 7.4), NaCl 100 mM, MgCl2 5 mM, GDP 1 μM, BSA 0.1% (w/v), DMSO 2.5% (v/v),
7) Washing solution: NaH2PO4 10 mM (pH 7.4)
The test compounds were dissolved in DMSO and prepared as a concentration of 20 mM.
The concentrations of the compounds were detected ranging from 0.3 nM to 20 μM.
Control group: […] SIP and SEW2871 were used as positive control and were purchased from Tocris company, and the binding buffet was as negative control.
Test method: wetting membranes by saponin solution, and preparing [^35S]-GTPγS in binding solution (4×). The test compound was prepared as 4× of the final concentration which was then performed serial 3× dilution in 100% DMSO. Membranes with high-expressed S1P1 were collected in 5 ml binding buffer, and 50 μL was added to 96-well (containing 5 μg membrane protein with high-expressed S1P1). 25 μL, test compound was added in each well. The compound was incubated with the membranes for 30 min at room temperature, then 25 μL [^35S]-GTPγS was added, and the experiment was initiated. The 96-well detection plate was incubated for 1 hour at room temperature, filtered by filtermat B, and washed with washing solution for three times. After the plate was dried for 1 h at 50° C., 8 ml scintillator solution was added and counted using scintillation counter.
Result Analysis and Determination of 50% Inhibitory Concentration (IC50):
The IC50 value was calculated by using (Prism 4) software, and 50% inhibitory concentrations were obtained.

S1P1 [2] = target: T1, S1P1; assay: S1P1 β-arrestin assay (PathHunter CHO-K1 EDG1); format: cell-based; conditions: CHO-EDG-1 cells
Method: 2.1 Experimental Materials: Path hunter express CHO-K1 EDG1 β-arrestin GPCR Assay was purchased from DiscoveRx, containing CHO-EDG-1 cells, buffers, substrate-1, substrate-2, cell culture fluid, 96-well cell culture plate.
1) The test compounds were dissolved in DMSO and prepared as a concentration of 20 mM.
2) The concentrations of the test compounds were detected ranging from […] to 20 μM.
4) Assay procedures: OCC culture solution was preheated in water tank at 37° C. Cells were taken out from liquor nitrogen tank, left on the dry-ice, and dissolved in water tank at 37° C. 0.5 ml OCC culture solution was added and blended slowly. The cells were diluted in 11.5 mL OCC culture solution, and 100 μL cell suspension (containing 8333 cells) was added to each well of the 96-well plate. The 96-well plate was incubated for 8 hours under 5% CO2 at 37° C., and 10 μL test compound dissolved in DMSO was added in; 10 μL DMSO was used as negative control. After the plate was incubated for 90 min at 37° C., 55 μL detection solution was added to each well. Then the results were read out by EnVision after the cell plate was incubated for 90 min at room temperature.
The EC50 Value was Calculated by Using Prism 4 Software

[3] = test system: peripheral blood lymphocyte; assay: Effects on peripheral blood lymphocyte in mice; format: in vivo, Balb/c mice; conditions: intragastric
Method: 3. Effects of the Compounds in Example-21 and Example-22 on Peripheral Blood Lymphocyte in Mice
3.1 Experimental Materials:
1) 15% EDTA, PBS, EP tubes, 15 ml centrifuge tube, capillary tube, pipette tip were all purchased from Shanghai biological technology co., Ltd. Hemocyte analysis reagents were purchased from Shanghai Sysmex Company.
2) 35 Balb/c mice (female, 20-22 g), supplied by laboratory animal center of Jilin University.
3) Automated Hematology Analyzer (pocH-100 iV Diff) was purchased from Sysmex Company, Kobe, Japan.
1) The stock solutions of the compounds obtained in Example-21 and Example-22 were prepared with normal saline, and the concentrations are 2 mg/ml and 20 mg/ml, respectively.
2) The mice were divided into […], i.e., control group, low-dose experimental group, and high-dose experimental group. They were weighed and labeled well.
3) Before administration, supraorbital venous blood was collected with 20 μl/mouse which was added to anticoagulant tube containing EDTA, and nosed thoroughly. The numbers of lymphocytes were analyzed by pocH-100.
4) The control group was given normal saline: low-dose experimental groups were given the compounds obtained in Example-21 and Example-22 (5 mg/kg/d), high-dose experimental groups were given the compounds obtained in Example-21 and Example-22 (30 mg/kg/d), with liquid amount of 500 μl/mouse, by intragastric administration. Administration was performed for continuous four days, once a day. After 3.5 hours of the first and fourth administration, blood was collected respectively, and changes in the numbers of lymphocytes were analyzed by pocH-100.

[4] = test system: experimental rheumatoid arthritis (bovine collagen type II immunized mice); assay: Experimental rheumatoid arthritis; format: in vivo; conditions: DBA/1JLacJ mice, 5 and 30 mg/kg/d intragastric, 30 days
[5] = test system: autoimmune multiple sclerosis (PLP139-151 immunized mice); assay: Experimental autoimmune multiple sclerosis; format: in vivo; conditions: SJL/J mice, 5 and 30 mg/kg/d intragastric, 30 days

T1 sequence (P21453 whole entry): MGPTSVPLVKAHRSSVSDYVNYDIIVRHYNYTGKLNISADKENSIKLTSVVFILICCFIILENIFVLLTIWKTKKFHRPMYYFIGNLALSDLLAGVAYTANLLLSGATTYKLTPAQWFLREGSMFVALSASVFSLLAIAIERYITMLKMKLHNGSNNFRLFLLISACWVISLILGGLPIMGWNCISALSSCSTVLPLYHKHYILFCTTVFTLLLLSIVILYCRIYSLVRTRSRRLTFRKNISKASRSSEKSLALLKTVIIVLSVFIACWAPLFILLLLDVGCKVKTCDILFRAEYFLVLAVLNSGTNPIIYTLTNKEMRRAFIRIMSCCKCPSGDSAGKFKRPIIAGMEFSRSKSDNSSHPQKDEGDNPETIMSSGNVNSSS

Molecule	pIC50 (S1P1 [1])	pEC50 (S1P1 [2])	also measured
CC(=O)NC1(CO)CCc2ccc(-c3nnc(-c4ccc(OC(C)C)c(C)c4)o3)cc2C1 (stereo not drawn) [Example 25, N-{2-hydroxymethyl-7-[5-(3-methyl-4-isopropoxyphenyl)-2-1,3,4-oxdiazolyl]-1,2,3,4-tetrahydro-naphthalen-2-yl}acetamide]	7.34		
Cc1cc(-c2noc(-c3ccc4c(c3)CC(N)(CO)CC4)n2)ccc1OC(C)C (stereo not drawn) [Example 27, 7-[3-(3-methyl-4-isopropoxyphenyl)-5-1,2,4-oxdiazolyl]-2-amino-1,2,3,4-tetrahydro-naphthalen-2-yl-methanol]	8.92	7.70	
Cc1cc(-c2nc(-c3ccc4c(c3)CCC(N)(CO)C4)no2)ccc1OC(C)C (stereo not drawn) [Example 30, 6-[5-(3-methyl-4-isopropoxyphenyl)-3-1,2,4-oxdiazolyl]-2-amino-1,2,3,4-tetrahydro-naphthalen-2-yl-methanol]	6.13		
CC(C)Oc1ccc(-c2nnc(-c3ccc4c(c3)CC(N)(CO)CC4)o2)cc1C(F)(F)F (stereo not drawn) [Example 11, 7-[5-(3-trifluoromethyl-4-isopropoxyphenyl)-2-[1,3,4]oxdiazolyl]-2-amino-1,2,3,4-tetrahydronaphthalen-2-yl-methanol]	9.40	8.51	
Cc1cc(-c2cn(-c3ccc4c(c3)CCC(N)(CO)C4)nn2)ccc1OC(C)C (stereo not drawn) [Example 32, 6-[4-(3-methyl-4-isopropoxyphenyl)-1-1,2,3-triazolyl]-2-amino-1,2,3,4-tetrahydro-naphthalen-2-yl-methanol]	6.90		
Cc1cc(-c2noc(-c3ccc4c(c3)CCC(N)(CO)C4)n2)ccc1OC(C)C (stereo not drawn) [Example 28, 6-[3-(3-methyl-4-isopropoxyphenyl)-5-1,2,4-oxdiazolyl]-2-amino-1,2,3,4-tetrahydro-naphthalen-2-yl-methanol]	6.33		
CCOc1ccc(-c2nnc(-c3ccc4c(c3)CC(N)(CO)CC4)o2)cc1OCC (stereo not drawn) [Example 20, 7-[5-(3,4-diethoxyphenyl)-2-[1,3,4]-oxdiazolyl]-2-amino-1,2,3,4-tetrahydro-naphthalen-2-yl-methanol]	6.75		
COCCOc1ccc(-c2nnc(-c3ccc4c(c3)CC(N)(CO)CC4)o2)cc1C (stereo not drawn) [Example 18, 7-{5-[4-(2-methoxyethoxy)-3-methylphenyl]-2-1,3,4-oxdiazolyl}-2-amino-1,2,3,4-tetrahydro-naphthalen-2-yl-methanol]	7.39		
Cc1cc(-c2cn(-c3ccc4c(c3)CC(N)(CO)CC4)nn2)ccc1OC(C)C (stereo not drawn) [Example 31, 7-[4-(3-methyl-4-isopropoxyphenyl)-1-1,2,3-triazolyl]-2-amino-1,2,3,4-tetrahydro-naphthalen-2-yl-methanol]	8.30	7.84	
Cc1cc(-c2nc(-c3ccc4c(c3)CC(N)(CO)CC4)no2)ccc1OC(C)C (stereo not drawn) [Example 29, 7-[5-(3-methyl-4-isopropoxyphenyl)-3-1,2,4-oxdiazolyl]-2-amino-1,2,3,4-tetrahydro-naphthalen-2-yl-methanol]	9.40	8.00	
Cc1cc(-c2nnc(-c3ccc4c(c3)CC(CO)(NS(C)(=O)=O)CC4)o2)ccc1OC(C)C (stereo not drawn) [Example 26, N-{2-hydroxymethyl-7-[5-(3-methyl-4-isopropoxyphenyl)-2-1,3,4-oxdiazolyl]-1,2,3,4-tetrahydro-naphthalen-2-yl}methanesulfonamide]	7.07		
Cc1cc(-c2nnc(-c3ccc4c(c3)CC(CO)(N(C)C)CC4)o2)ccc1OC(C)C (stereo not drawn) [Example 24, 7-[5-(3-methyl-4-isopropoxyphenyl)-2-1,3,4-oxdiazolyl]-2-dimethylamino-1,2,3,4-tetrahydro-naphthalen-2-yl-methanol]	7.34	6.45	
CC(C)Oc1ccc(-c2nnc(-c3ccc4c(c3)CC(N)(CO)CC4)o2)cn1 (stereo not drawn) [Example 19, 7-[5-(6-isopropoxy-3-pyridyl)-2-[1,3,4]-oxdiazolyl]-2-amino-1,2,3,4-tetrahydronaphthalen-2-yl-methanol]	7.21		
COCCOc1ccc(-c2nnc(-c3ccc4c(c3)CC(N)(CO)CC4)o2)cc1C(F)(F)F (stereo not drawn) [Example 17, 7-{5-[4-(2-methoxyethoxy)-3-trifluoromethylphenyl]-2-1,3,4-oxdiazolyl}-2-amino-1,2,3,4-tetrahydro-naphthalen-2-yl-methanol]	7.99		
CCNC1(CO)CCc2ccc(-c3nnc(-c4ccc(OC(C)C)c(C)c4)o3)cc2C1 (stereo not drawn) [Example 23, 7-[5-(3-methyl-4-isopropoxyphenyl)-2-1,3,4-oxdiazolyl]-2-ethylamino-1,2,3,4-tetrahydro-naphthalen-2-yl-methanol]	7.42		
COCCOc1ccc(-c2nnc(-c3ccc4c(c3)CC(N)(CO)CC4)o2)cc1 (stereo not drawn) [Example 10, 7-{5-[4-(2-methoxyethoxy)phenyl]-2-[1,3,4]oxdiazolyl]-2-amino-1,2,3,4-tetrahydro-naphthalen-2-yl-methanol]	7.50	7.11	
CC(C)Oc1ccc(-c2nnc(-c3ccc4c(c3)CC(N)(CO)CC4)o2)cc1 (stereo not drawn) [Example 16, 7-[5-(4-isopropoxyphenyl)-2-1,3,4-oxdiazolyl]-2-amino-1,2,3,4-tetrahydro-naphthalen-2-yl-methanol]	7.34		
2-(7-benzylamino-5,6,7,8-tetrahydro-7-naphthalenemethanol)-5-(3-methyl-4-isopropoxy)-1,3,4-oxdiazole [Example 21]	6.75		toxicity ([3]; dose up to 30 mg/kg/d, four days): no toxicity effects; behavior and weight of mice, pre- versus post-administration ([3]; four days): no differences; numbers of peripheral blood lymphocyte reduced compared to pre-administration ([3]; once a day for continuous four days): 92%; effect on induction and development of experimental rheumatoid arthritis [4]: obviously inhibiting; effect on induction and development of experimental rheumatoid arthritis ([4]; listed as Example-21): remarkable inhibitory effects; effect on induction and development of autoimmune multiple sclerosis [5]: obviously inhibiting; effect on induction and development of autoimmune multiple sclerosis ([5]; listed as Example-21): remarkable inhibitory effects
COc1ccc(-c2nnc(-c3ccc4c(c3)CC(N)(CO)CC4)o2)cc1C (stereo not drawn) [Example 15, 7-[5-(4-methoxy-3-methylphenyl)-2-1,3,4-oxdiazolyl]-2-amino-1,2,3,4-tetrahydro-naphthalen-2-yl-methanol]	7.80	7.57	
